{"source": "patent US20170356048A1", "about": "“METHOD FOR PREDICTING RECEPTIVITY TO TARGETED ANTICANCER DRUG” (CBSBIOSCIENCE INC., priority 2014, published 2017)", "key": {"[1]": {"tested_on": "hepatocellular carcinoma", "details": "cited from earlier work"}, "[2]": {"tested_on": "liver cancer", "test": "Rate of response to sorafenib treatment (reduction in tumor size by CT and MRI, mRECIST) in liver cancer patients stratified by risk score or marker gene expression", "format": "in vivo, human", "experimental": "In the following manner, RNA was extracted from each of the tissues and synthesized into cDNA.\nThe risk scores of a total of 29 liver cancer patients were calculated, and the risk score distribution of responders to sorafenib and the risk score distribution of non-responders to sorafenib were examined. Herein, whether or not sorafenib would have a therapeutic effect was determined based on the degree of reduction in tumor size by CT and MRI imagings, and criteria for the determination followed mRECIST (modified Response Evaluation Criteria in Solid tumors) criteria version 1.1.\nIn addition, after stratification of the liver cancer patients by classification, the rate of response to sorafenib treatment was examined in order to confirm improvement in clinical responses, and the results of the examination are shown in Table 5 below."}}}
{"compound": "CNC(=O)c1cc(Oc2ccc(NC(=O)Nc3ccc(Cl)c(C(F)(F)F)c3)cc2)ccn1", "note": "[sorafenib]", "values": [{"measurement": "treatment rate", "setting": "[1]; hepatocellular carcinoma, unselected patients", "result": "2-3%"}, {"measurement": "therapeutic effect", "setting": "[1]; known value, NEJM2008 359(4):378-390", "result": "about 2.3%"}, {"measurement": "Response rate (%)", "setting": "[2]; liver cancer patients with CDH1 expression ≦0.0067, 3 responders, 13 non-responders", "result": 18.75, "unit": "%"}, {"measurement": "Response rate (%)", "setting": "[2]; liver cancer patients with ID2 expression ≦0.4965, 3 responders, 12 non-responders", "result": 20.0, "unit": "%"}, {"measurement": "Response rate (%)", "setting": "[2]; liver cancer patients with MMP9 expression >0.0433, 3 responders, 15 non-responders", "result": 16.67, "unit": "%"}, {"measurement": "Response rate (%)", "setting": "[2]; liver cancer patients with TCF3 expression >0.3711, 2 responders, 1 non-responder", "result": 66.67, "unit": "%"}, {"measurement": "Response rate (%)", "setting": "[2]; liver cancer patients with risk score (CDH1, ID2, MMP9, TCF3) >87.59, 3 responders, 8 non-responders", "result": 27.27, "unit": "%"}]}
